This note sets out measurements from ChEMBL document CHEMBL1133817, “Discovery of novel, orally active dual NK1/NK2 antagonists” (Bioorg Med Chem Lett, 2001).

The test system of assay [1] is Substance-P receptor (Oryctolagus cuniculus). Briefly: Binding constant towards tachykinin receptor 1 using ASMSP as agonist on rabbit pulmonary artery tissues.
For assay [2], the target named is T1, Substance-K receptor (Oryctolagus cuniculus) (UniProt P79218).
T1 sequence (whole entry): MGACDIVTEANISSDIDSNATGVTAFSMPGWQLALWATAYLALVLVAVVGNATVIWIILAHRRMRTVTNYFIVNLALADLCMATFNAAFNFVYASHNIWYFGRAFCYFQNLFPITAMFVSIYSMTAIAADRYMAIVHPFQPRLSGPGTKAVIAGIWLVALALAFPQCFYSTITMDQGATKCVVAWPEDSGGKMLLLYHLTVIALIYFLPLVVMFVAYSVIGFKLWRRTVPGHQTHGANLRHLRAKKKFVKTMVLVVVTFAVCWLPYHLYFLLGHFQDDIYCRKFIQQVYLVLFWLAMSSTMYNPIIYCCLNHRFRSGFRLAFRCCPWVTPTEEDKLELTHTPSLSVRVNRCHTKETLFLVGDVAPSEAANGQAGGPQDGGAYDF
Kind of assay: Binding constant towards Tachykinin receptor 2 using BANK as agonist on rabbit pulmonary artery tissues.

The target of assay [3] is T1, Substance-K receptor (Oryctolagus cuniculus). Briefly: Binding constant towards Tachykinin receptor 2 using BANK as agonist on rabbit pulmonary artery tissues; NA is not active.
Assay [4] deals with Substance-P receptor (Homo sapiens, UniProt P25103). Particulars: Oryctolagus cuniculus; Artery.
Substance-P receptor, sequence (P25103 whole entry): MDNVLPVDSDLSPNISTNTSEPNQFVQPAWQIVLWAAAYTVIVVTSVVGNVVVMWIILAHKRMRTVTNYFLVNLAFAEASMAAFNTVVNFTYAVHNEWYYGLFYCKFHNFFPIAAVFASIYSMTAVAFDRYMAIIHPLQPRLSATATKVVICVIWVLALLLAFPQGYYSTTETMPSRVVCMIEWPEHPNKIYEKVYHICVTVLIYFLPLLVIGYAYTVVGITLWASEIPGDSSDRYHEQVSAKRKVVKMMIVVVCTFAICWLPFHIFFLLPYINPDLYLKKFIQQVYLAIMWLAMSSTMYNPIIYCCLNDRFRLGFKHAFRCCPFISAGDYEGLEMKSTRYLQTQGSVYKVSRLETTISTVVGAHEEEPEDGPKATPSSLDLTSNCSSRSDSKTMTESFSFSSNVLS
Description: Binding constant towards Tachykinin receptor 1 using ASMSP as agonist on rabbit pulmonary artery tissues; NA is not active

Calls of active or inactive are those of the source. The rule behind the calls is not given here.

For `CN(C[C@@H](CCN1CCC(c2ccccc2[S+](C)[O-])CC1)c1ccc(Cl)c(Cl)c1)C(=O)c1ccc(C#N)c2ccccc12` (stereo partly drawn), the pKB (as a rule, −log10 of the KB, conventionally taken in molar units) in assay [1] was 6.31; in assay [2], 7.34. The corresponding values for `CC(=O)c1cc(C(=O)N(C)C[C@@H](CCN2CCC(c3ccccc3[S+](C)[O-])CC2)c2ccc(Cl)c(Cl)c2)c2ccccc2c1` (stereo partly drawn) are 7.41 and 7.17. With `CNC(=O)C1(N2CCCNC2=O)CCN(CC[C@H](CN(C)C(=O)c2cccc3ccccc23)c2ccc(Cl)c(Cl)c2)CC1`, the pKB was 6.82 in assay [1] and 8.41 in assay [2]. Turning to `CN(C[C@@H](CCN1CCC(N2CCCNC2=O)CC1)c1ccc(Cl)c(Cl)c1)C(=O)c1cccc2ccccc12`, the figures for the pKB in assay [1] and in assay [2] were 7.34 and 7.92, respectively.

For `CN(C[C@@H](CCN1CCC(c2ccccc2C(F)(F)F)CC1)c1ccc(Cl)c(Cl)c1)C(=O)c1cccc2ccccc12`, the pKB in assay [1] came to 6.03. For the same compound, the pKB entry in assay [3] is “inactive”.

In the case of `CN(C[C@@H](CCN1CCC(c2ccccc2[S+](C)[O-])CC1)c1ccc(Cl)c(Cl)c1)C(=O)c1cc([N+](=O)[O-])cc2ccccc12` (stereo partly drawn), the pKB in assay [1] was determined as 8.16; in assay [2], 9.03. For `CN(C[C@@H](CCN1CCC(c2ccccn2)CC1)c1ccc(Cl)c(Cl)c1)C(=O)c1cccc2ccccc12`, in assay [1], the pKB stood at 6.98. Further, in assay [3], the pKB result is “inactive”. On to `CCN1C(=O)c2ccccc2[C@H]1[C@@H](CCN1CCC(c2ccccc2[S@+](C)[O-])CC1)c1ccc(Cl)c(Cl)c1`, for which the pKB in assay [2] came out at 8.8. For `CN(C[C@@H](CCN1CCC(c2ccccc2[S+](C)[O-])CC1)c1ccc(Cl)c(Cl)c1)C(=O)c1cc(F)cc2ccccc12` (stereo partly drawn), the pKB in assay [1] is 7.9; in assay [2], 8.15.

Take `CN(C[C@@H](CCN1CCC(c2ccccc2S(C)(=O)=O)CC1)c1ccc(Cl)c(Cl)c1)C(=O)c1cccc2ccccc12`: the pKB is 7.81 in assay [1] and 7.55 in assay [2]. As to `CC(=O)NC1(c2ccccc2)CCN(CC[C@H](CN(C)C(=O)c2cccc3ccccc23)c2ccc(Cl)c(Cl)c2)CC1`, the results for the pKB in assay [1] and in assay [2] were 7.18 and 8.18, respectively.

Regarding `CN(C[C@@H](CCN1CCC(c2ccccc2[S+](C)[O-])CC1)c1ccc(Cl)c(Cl)c1)C(=O)c1cc(CC#N)cc2ccccc12` (stereo partly drawn), the pKB in assay [1] is 8.42; in assay [2], 6.99.

As to `Cc1cc(C(=O)N(C)C[C@@H](CCN2CCC(c3ccccc3[S+](C)[O-])CC2)c2ccc(Cl)c(Cl)c2)c2ccccc2c1` (stereo partly drawn), the pKB in assay [1] turned out to be 8.03; in assay [2], 7.29. In the case of `C=C(C)c1cc(C(=O)N(C)C[C@@H](CCN2CCC(c3ccccc3[S+](C)[O-])CC2)c2ccc(Cl)c(Cl)c2)c2ccccc2c1` (stereo partly drawn), the pKB in assay [1] and in assay [2] was 7.24 each time. `CN(C[C@H](CCN1CCC(c2ccccc2[S+](C)[O-])CC1)c1ccc(Cl)c(Cl)c1)C(=O)c1cc(C#N)cc2ccccc12` (stereo partly drawn): the pKB in assay [2] turned out to be 7.1. In assay [4], the pKB result was “inactive”. `COc1cc(C(=O)N(C)C[C@@H](CCN2CCC(c3ccccc3[S+](C)[O-])CC2)c2ccc(Cl)c(Cl)c2)c2ccccc2c1` (stereo partly drawn): the pKB stood at 7.95 in assay [1] and 7.7 in assay [2]. The corresponding values for `CN(C[C@@H](CCN1CCC(c2cccnc2[S+](C)[O-])CC1)c1ccc(Cl)c(Cl)c1)C(=O)c1cccc2ccccc12` (stereo partly drawn) are 7.69 and 7.82. As for `CN(C[C@@H](CCN1CCC(c2ccccc2[S+](C)[O-])CC1)c1ccc(Cl)c(Cl)c1)C(=O)c1cccc2ccc(C#N)cc12` (stereo partly drawn), the pKB in assay [1] was found to be 8.13; in assay [2], 8.51. In the case of `C#Cc1cc(C(=O)N(C)C[C@@H](CCN2CCC(c3ccccc3[S+](C)[O-])CC2)c2ccc(Cl)c(Cl)c2)c2ccccc2c1` (stereo partly drawn), the pKB in assay [1] is 7.71; in assay [2], 7.44.

Regarding `CN(C)C(=O)C1(N2CCCCC2=O)CCN(CC[C@H](CN(C)C(=O)c2cccc3ccccc23)c2ccc(Cl)c(Cl)c2)CC1`, the negative-log KB (pKB) was 6.78 in assay [1] and 8.23 in assay [2]. Regarding `CN(C[C@@H](CCN1CCC(c2ccccc2[S+](C)[O-])CC1)c1ccc(Cl)c(Cl)c1)C(=O)c1cc(C(=O)O)cc2ccccc12` (stereo partly drawn), the pKB in assay [1] is 5.68; in assay [2], 6.86. For `CN(C[C@@H](CCN1CCC(O)(c2ccc([S+](C)[O-])cc2)CC1)c1ccc(Cl)c(Cl)c1)C(=O)c1cccc2ccccc12` (stereo partly drawn), the pKB is 6.92 in assay [1] and 7.54 in assay [2]. In turn, `CN(C[C@@H](CCN1CCC(N2C(=O)CCCC2=O)CC1)c1ccc(Cl)c(Cl)c1)C(=O)c1cccc2ccccc12` came in with a pKB in assay [1] of 6.28. Moreover, in assay [3], the pKB entry was “inactive”.

As for `CN(C[C@@H](CCN1CCC(c2ccccc2[S+](C)[O-])CC1)c1ccc(Cl)c(Cl)c1)C(=O)c1cc(C(F)(F)F)cc2ccccc12` (stereo partly drawn), the negative logarithm of the KB (pKB) in assay [1] is 7.84; in assay [2], 6.45.

Regarding `CNC(=O)c1ccccc1C1CCN(CC[C@H](CN(C)C(=O)c2cccc3ccccc23)c2ccc(Cl)c(Cl)c2)CC1`, the pKB turned out to be 7.3 in assay [1] and 8.21 in assay [2]. Take `CN(C[C@@H](CCN1CCC(c2ccccc2[S+](C)[O-])CC1)c1ccc(Cl)c(Cl)c1)C(=O)c1cc(S(N)(=O)=O)cc2ccccc12` (stereo partly drawn): the pKB was found to be 7.54 in assay [1] and 7.02 in assay [2]. For the compound `CN(C[C@@H](CCN1CCC(c2ccccc2[S+](C)[O-])CC1)c1ccc(Cl)c(Cl)c1)C(=O)c1cccc2cc(C#N)ccc12` (stereo partly drawn), the values for the pKB in assay [1] and in assay [2] were 8.55 and 7.62, respectively. On to `CN(C[C@@H](CCN1CCC(c2ccc([S+](C)[O-])cc2)CC1)c1ccc(Cl)c(Cl)c1)C(=O)c1cccc2ccccc12` (stereo partly drawn), for which the pKB in assay [1] stood at 7.4; in assay [2] it was 6.76. Consider `CN(C[C@@H](CCN1CCC(c2ccccc2[S@+](C)[O-])CC1)c1ccc(Cl)c(Cl)c1)C(=O)c1cc(C#N)cc2ccccc12` (stereo in doubt; 4b), for which the pKB in assay [2] was 8.39. For the compound `CN(C[C@@H](CCN1CCC(c2ccccc2[S+](C)[O-])CC1)c1ccc(Cl)c(Cl)c1)C(=O)c1cccc2ccccc12` (stereo partly drawn), the pKB in assay [1] was found to be 7.89; in assay [2], 8.18. The corresponding values for `CN(C[C@@H](CCN1CCC(O)(c2ccccc2[S+](C)[O-])CC1)c1ccc(Cl)c(Cl)c1)C(=O)c1cccc2ccccc12` (stereo partly drawn) are 7.3 and 7.32.

Regarding `CNC(=O)C1(N2CCCCC2=O)CCN(CC[C@H](CN(C)C(=O)c2cccc3ccccc23)c2ccc(Cl)c(Cl)c2)CC1`, the figures for the pKB in assay [1] and in assay [2] were 6.42 and 8.44, respectively. The corresponding values for `CN(C[C@@H](CCN1CCC(c2ccccc2[S+](C)[O-])CC1)c1ccc(Cl)c(Cl)c1)C(=O)c1cc(Br)cc2ccccc12` (stereo partly drawn) are 8.15 and 7.67. The corresponding values for `CN(C[C@@H](CCN1CCC(c2ccccc2[S+](C)[O-])CC1)c1ccc(Cl)c(Cl)c1)C(=O)c1cc(Cl)cc2ccccc12` (stereo partly drawn) are 7.15 and 7.1. For `CN(C[C@@H](CCN1CCC2(CC1)C[S+]([O-])c1ccccc12)c1ccc(Cl)c(Cl)c1)C(=O)c1cccc2ccccc12` (stereo partly drawn), the pKB in assay [1] was 6.98; in assay [2], 8.1.

`CC(=O)NC1(c2ccccc2)CCN(CC[C@H](CN(C)C(=O)c2ccccc2)c2ccc(Cl)c(Cl)c2)CC1`: in assay [2], the pKB amounted to 9.3. For `CN(C)C(=O)c1cc(C(=O)N(C)C[C@@H](CCN2CCC(c3ccccc3[S+](C)[O-])CC2)c2ccc(Cl)c(Cl)c2)c2ccccc2c1` (stereo partly drawn), the figures for the pKB in assay [1] and in assay [2] were 5.17 and 7.31, respectively. Taken in the same sequence, the figures for `CN(C[C@@H](CCN1CCC(c2ccccc2[S+](C)[O-])CC1)c1ccc(Cl)c(Cl)c1)C(=O)c1cc(S(C)(=O)=O)cc2ccccc12` (stereo partly drawn) were 7.43 and 7.35.
